# Experimental data from US20230220035A1 (DONG-A ST CO., LTD., published 2023).
# Like-named read-outs stand apart in the source and are kept apart here.
# Legend:
# [1] = Single-dose pharmacokinetic profile in mice; conditions: mouse
# Excerpt: (§1) ICR mice were used to evaluate the pharmacokinetics in mice of the acylated oxyntomodulin peptide analogs according to the present invention.
# [2] = Single-dose pharmacokinetic profile in monkeys; conditions: cynomolgus monkey, plasma, sc, 100 nmmol/kg, Monkey PK (S.C. half-life), single S.C. dose 100 nmmol/kg
# Excerpt: (§2) Cynomolgus monkeys were used to evaluate the pharmacokinetics in monkeys of the acylated oxyntomodulin peptide analogs according to the present invention.
# [3] = in vivo; conditions: cynomolgus monkey, sc
# Excerpt: as §2
# [4] = target: T1, GLP-1 receptor (Homo sapiens, UniProt P43220); conditions: read-out: EC50 to the GLP-1 receptor; from Korean Patent Application No. 2017-0103798 / 2018-0095717; cited from earlier work
# Target sequence in this assay (P43220 24-463, species assumed): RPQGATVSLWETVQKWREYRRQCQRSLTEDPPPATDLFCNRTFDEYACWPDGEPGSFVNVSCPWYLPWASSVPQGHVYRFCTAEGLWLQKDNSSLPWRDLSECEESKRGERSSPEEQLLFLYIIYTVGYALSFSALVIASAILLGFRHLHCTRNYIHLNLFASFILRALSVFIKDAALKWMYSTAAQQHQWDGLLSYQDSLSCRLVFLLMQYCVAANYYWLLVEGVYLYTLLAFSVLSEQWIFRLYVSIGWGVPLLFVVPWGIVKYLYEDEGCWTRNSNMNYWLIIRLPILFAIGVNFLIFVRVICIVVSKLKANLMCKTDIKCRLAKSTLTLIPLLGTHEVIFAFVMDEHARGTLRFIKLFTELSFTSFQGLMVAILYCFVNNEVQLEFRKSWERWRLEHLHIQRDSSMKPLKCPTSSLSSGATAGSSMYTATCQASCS
# [5] = target: T1, GLP-1 receptor; test: Human GLP-1 receptor activation assay (CRE-luciferase); assay type: cell-based; set-up: host or cells: CHO-K1; conditions: for Emax: CHO-K1, 6 h, read-out: GLP-1 receptor Maximum activation (% vs GLP-1); for EC50: CHO-K1 cells transiently transfected, luciferase, 6 hours, 0.1% BSA
# Target sequence in this assay (P43220 24-463): as the sequence (P43220 24-463, species assumed) above
# [6] = target: T2, glucagon receptor (Homo sapiens, UniProt P47871); conditions: from Korean Patent Application No. 2017-0103798 / 2018-0095717; cited from earlier work
# Target sequence in this assay (P47871 26-477, species assumed): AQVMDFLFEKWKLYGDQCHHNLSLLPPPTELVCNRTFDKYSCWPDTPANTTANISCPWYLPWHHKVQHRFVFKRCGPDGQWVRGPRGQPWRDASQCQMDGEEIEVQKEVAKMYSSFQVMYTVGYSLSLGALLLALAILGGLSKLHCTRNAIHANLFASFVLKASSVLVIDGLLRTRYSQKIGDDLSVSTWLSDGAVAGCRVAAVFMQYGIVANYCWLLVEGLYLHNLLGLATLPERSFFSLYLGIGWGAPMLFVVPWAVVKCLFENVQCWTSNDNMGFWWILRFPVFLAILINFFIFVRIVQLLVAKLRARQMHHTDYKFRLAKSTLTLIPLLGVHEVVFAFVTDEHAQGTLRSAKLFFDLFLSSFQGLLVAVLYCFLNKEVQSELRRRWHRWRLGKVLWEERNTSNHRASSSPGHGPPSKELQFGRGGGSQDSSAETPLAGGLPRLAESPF
# [7] = in vivo; conditions: mouse
# Excerpt: as §1
# [8] = target: T2, glucagon receptor; test: Human glucagon receptor activation assay (CRE-luciferase); assay type: cell-based; set-up: host or cells: CHO-K1; conditions: CHO-K1 cells transiently transfected; for Emax: 6 h, relative to glucagon, read-out: GCG receptor Maximum activation (% vs GCG); for EC50: 6 hours, 0.1% BSA, read-out: GCG receptor EC50
# Target sequence in this assay (P47871 26-477): as the sequence (P47871 26-477, species assumed) above
# [9] = tested on: overweight and obese patients; conditions: subcutaneously for 4 weeks, 3 times per day; cited from earlier work
# [10] = ICR, sc, Mouse PK (S.C. half-life)
"half-life ([1]; ICR, plasma, sc, 30 nmmol/kg, Mouse PK (S.C. half-life), ICR mice, single S.C. dose 30 nmmol/kg) [h]","half-life ([1]; in vivo, half-life, pharmacokinetic evaluation in mice (background), mice, dose not given) [h]",half-life [2] [h],half-life ([3]; Monkey PK (S.C. half-life)) [h],half-life ([3]; monkey PK half-life) [h],Emax [5] [%],EC50 [5] [nM],"half-life [7, 10] [h]","half-life ([7]; ICR, sc, half-life in mice) [h]","half-life ([7]; half-life, pharmacokinetic evaluation in mice (background)) [h]",Emax [8] [%],EC50 [8] [nM],Compound,EC50 [4] [nM],EC50 [6] [nM],body weight loss on average [9] [kg]
< 6,4,< 6,–,–,–,–,–,–,–,–,–,CCCCCCCCCCCCCCCC(=O)N[C@@H](CCC(=O)NCCCC[C@H](NC(=O)[C@H](CC(=O)O)NC(=O)[C@H](CO)NC(=O)[C@@H](NC(=O)[C@H](Cc1ccccc1)NC(=O)[C@@H](NC(=O)CNC(=O)[C@H](CCC(N)=O)NC(=O)[C@H](CO)NC(=O)[C@@H](N)Cc1c[nH]cn1)[C@@H](C)O)[C@@H](C)O)C(=O)N[C@@H](CO)C(=O)N[C@@H](CCC(=O)O)C(=O)N[C@@H](Cc1ccc(O)cc1)C(=O)N[C@@H](CC(C)C)C(=O)N[C@@H](CC(=O)O)C(=O)N[C@@H](CO)C(=O)N[C@@H](CCC(=O)O)C(=O)N[C@@H](CCCNC(=N)N)C(=O)N[C@@H](C)C(=O)N[C@@H](CCCNC(=N)N)C(=O)N[C@@H](CC(=O)O)C(=O)N[C@@H](Cc1ccccc1)C(=O)N[C@H](C(=O)N[C@@H](C)C(=O)N[C@@H](Cc1c[nH]c2ccccc12)C(=O)N[C@@H](CC(C)C)C(=O)N[C@@H](CCC(=O)O)C(=O)N[C@@H](C)C(=O)NCC(=O)NCC(=O)O)C(C)C)C(=O)O [MEDI0382],–,–,–
–,–,–,> 24,> 24,98.3,0.1 to 1,> 6,> 6,3.3,98.3,0.1 to 1,CCCCCCCCCCCCCCCCCC(=O)N[C@@H](CCC(=O)NCCOCCOCC(=O)NCCOCCOCC(=O)NCCCC[C@H](NC(=O)[C@H](CC(=O)O)NC(=O)[C@H](CO)NC(=O)[C@@H](NC(=O)[C@H](Cc1ccccc1)NC(=O)[C@@H](NC(=O)CNC(=O)[C@H](CCC(N)=O)NC(=O)C(C)(C)NC(=O)[C@@H](N)Cc1c[nH]cn1)[C@@H](C)O)[C@@H](C)O)C(=O)N[C@@H](CO)C(=O)N[C@@H](CCCCN)C(=O)N[C@@H](Cc1ccc(O)cc1)C(=O)N[C@@H](CC(C)C)C(=O)N[C@@H](CC(=O)O)C(=O)NC(C)(C)C(=O)N[C@@H](CCCNC(=N)N)C(=O)N[C@@H](CCCNC(=N)N)C(=O)N[C@@H](C)C(=O)N[C@@H](CCC(N)=O)C(=O)N[C@@H](CC(=O)O)C(=O)N[C@@H](Cc1ccccc1)C(=O)N[C@H](C(=O)N[C@@H](CCC(N)=O)C(=O)N[C@@H](Cc1c[nH]c2ccccc12)C(=O)N[C@@H](CC(C)C)C(=O)N[C@@H](CCSC)C(=O)N[C@@H](CC(N)=O)C(=O)N[C@H](C(=O)N[C@@H](CCCCN)C(=O)N[C@@H](CCC(=O)O)C(=O)N[C@@H](Cc1ccc(O)cc1)C(=O)N[C@@H](CCC(=O)O)C(=O)N[C@@H](CCCCNC(=O)CCCCCCCCCCCCCCCCC(=O)O)C(=O)N[C@@H](CCC(=O)O)C(=O)N[C@@H](Cc1ccc(O)cc1)C(=O)N[C@@H](CCC(=O)O)C(=O)O)[C@@H](C)O)C(C)C)C(=O)O [Compound 3],< 0.01,< 0.01,–
–,–,–,–,–,–,–,–,–,–,–,–,HSQGTFTSDYSKYLDSRRAQDFVQWLMNTKRNRNNIA (HSQGTFTSDKSKYLDSRRAQDFVQWLMNTKRNRNNIA; listed as Homo sapiens) [oxyntomodulin],–,–,2.3
–,–,–,> 24,> 24,90.8,< 0.1,> 6,> 6,–,100,< 0.1,CCCCCCCCCCCCCCCCCC(=O)N[C@@H](CCC(=O)NCCOCCOCC(=O)NCCOCCOCC(=O)NCCCC[C@H](NC(=O)[C@H](CC(=O)O)NC(=O)[C@H](CO)NC(=O)[C@@H](NC(=O)[C@H](Cc1ccccc1)NC(=O)[C@@H](NC(=O)CNC(=O)[C@H](CCC(N)=O)NC(=O)C(C)(C)NC(=O)[C@@H](N)Cc1c[nH]cn1)[C@@H](C)O)[C@@H](C)O)C(=O)N[C@@H](CO)C(=O)N[C@@H](CCCCN)C(=O)N[C@@H](Cc1ccc(O)cc1)C(=O)N[C@@H](CC(C)C)C(=O)N[C@@H](CC(=O)O)C(=O)NC(C)(C)C(=O)N[C@@H](CCCNC(=N)N)C(=O)N[C@@H](CCCNC(=N)N)C(=O)N[C@@H](C)C(=O)N[C@@H](CCC(N)=O)C(=O)N[C@@H](CC(=O)O)C(=O)N[C@@H](Cc1ccccc1)C(=O)N[C@H](C(=O)N[C@@H](CCC(N)=O)C(=O)N[C@@H](Cc1c[nH]c2ccccc12)C(=O)N[C@@H](CC(C)C)C(=O)N[C@@H](CCSC)C(=O)N[C@@H](CC(N)=O)C(=O)N[C@H](C(=O)N[C@@H](CCCCN)C(=O)N[C@@H](CCC(=O)O)C(=O)N[C@@H](Cc1ccc(O)cc1)C(=O)N[C@@H](CCC(=O)O)C(=O)N[C@@H](CCCCNC(=O)CCCCCCCCCCCCCCCCC(N)=O)C(=O)N[C@@H](CCC(=O)O)C(=O)N[C@@H](Cc1ccc(O)cc1)C(=O)N[C@@H](CCC(=O)O)C(=O)O)[C@@H](C)O)C(C)C)C(=O)O [Compound 7],–,–,–
